The source made the active and inactive calls. The calls are words filed in the database; no cut-off is given here.
How the values were obtained:
AGS [1] = test: Induction of apoptosis in human AGS cells assessed as increase in pp38 level at 100 uM after 24 hrs by Western blotting analysis in presence of bafilomycin A1; format: functional, cell-based
AGS [2] = test: Induction of apoptosis in human AGS cells assessed as reduction of caspase3 activation at 100 uM after 24 hrs by Western blotting analysis in presence of bafilomycin A1; format: functional, cell-based
HCT-116 [3] = test: Induction of autophagy in human HCT116 cells assessed as increase in LC3-2 level at 50 uM after 24 hrs by Western blotting analysis; format: functional, cell-based
AGS [4] = test: Induction of autophagy in human AGS cells assessed as increase in LC3-2 level at 50 uM after 24 hrs by Western blotting analysis; format: functional, cell-based
HCT-116 [5] = test: Induction of autophagy in human HCT116 cells assessed as massive vacuole formation at 50 uM after 24 hrs by acridine orange staining-based fluorescence microscopy; format: functional, cell-based
AGS [6] = test: Induction of autophagy in human AGS cells assessed as massive vacuole formation at 50 uM after 24 hrs by acridine orange staining-based fluorescence microscopy in presence of bafilomycin A1; format: functional, cell-based
HCT-116 [7] = test: Induction of autophagy in human HCT116 cells assessed as massive vacuole formation at 50 uM after 24 hrs by fluorescence microscopy; format: functional, cell-based
AGS [8] = test: Induction of apoptosis in human AGS cells assessed as reduction of FasL level at 100 uM after 24 hrs by Western blotting analysis in presence of SB202190; format: functional, cell-based
AGS [9] = test: Induction of apoptosis in human AGS cells assessed as reduction of caspase8 activation at 100 uM after 24 hrs by Western blotting analysis in presence of SP600125; format: functional, cell-based
AGS [10] = test: Induction of apoptosis in human AGS cells assessed as decrease in pERK level at 25 to 150 uM after 24 hrs by Western blotting analysis; format: functional, cell-based
AGS [11] = test: Induction of apoptosis in human AGS cells assessed as increase in pJNK level at 25 to 150 uM after 24 hrs by Western blotting analysis; format: functional, cell-based
AGS [12] = test: Induction of apoptosis in human AGS cells assessed as procaspase-9 level at 25 to 150 uM after 24 hrs by Western blotting analysis; format: functional, cell-based
AGS [13] = test: Induction of apoptosis in human AGS cells assessed as increase in FasL level at 25 to 150 uM after 24 hrs by Western blotting analysis; format: functional, cell-based
AGS [14] = test: Induction of apoptosis in human AGS cells assessed as caspase-8 activation at 25 to 150 uM after 24 hrs by Western blotting analysis; format: functional, cell-based
HCT-116 [15] = test: Antitumor activity against human HCT116 cells xenografted in BALB/c nude mouse assessed as reduction of Ki-67 expression at 40 mg/kg, ip administered 3 times a week for 5 weeks by immunohistochemical analysis; format: functional, organism-based; set-up: dose 40 mg/kg
HCT-116 [16] = test: Induction of apoptosis in human HCT116 cells assessed as apoptotic cells after 24 hrs by annexin V-FITC/propidium iodide staining-based flow cytometry; format: functional, cell-based
AGS [17] = test: Cell cycle arrest in human AGS cells assessed as accumulation at sub G1 phase at 100 uM after 24 hrs by propidium iodide staining-based flow cytometry; format: functional
AGS [18] = test: Induction of apoptosis in human AGS cells assessed as apoptotic cells at 150 uM after 24 hrs by annexin V-FITC/propidium iodide staining-based flow cytometry; format: functional
AGS [19] = test: Induction of apoptosis in human AGS cells assessed as apoptotic cells at 100 uM after 24 hrs by annexin V-FITC/propidium iodide staining-based flow cytometry; format: functional
AGS [20] = test: Induction of apoptosis in human AGS cells assessed as apoptotic cells at 50 uM after 24 hrs by annexin V-FITC/propidium iodide staining-based flow cytometry; format: functional
AGS [21] = test: Induction of apoptosis in human AGS cells assessed as apoptotic cells at 25 uM after 24 hrs by annexin V-FITC/propidium iodide staining-based flow cytometry; format: functional
HCT-116 [22] = test: Induction of apoptosis in human HCT116 cells assessed as necrotic cells at 25 uM after 24 hrs by annexin V-FITC/propidium iodide staining-based flow cytometry (reference value: 0.68%); format: functional
HCT-116 [23] = test: Induction of apoptosis in human HCT116 cells assessed as late apoptotic cells at 100 uM after 24 hrs by annexin V-FITC/propidium iodide staining-based flow cytometry (reference value: 2.71%); format: functional
HCT-116 [24] = test: Induction of apoptosis in human HCT116 cells assessed as late apoptotic cells at 50 uM after 24 hrs by annexin V-FITC/propidium iodide staining-based flow cytometry (reference value: 2.71%); format: functional
HCT-116 [25] = test: Induction of apoptosis in human HCT116 cells assessed as early apoptotic cells at 150 uM after 24 hrs by annexin V-FITC/propidium iodide staining-based flow cytometry (reference value: 3.61%); format: functional
HCT-116 [26] = test: Induction of apoptosis in human HCT116 cells assessed as early apoptotic cells at 100 uM after 24 hrs by annexin V-FITC/propidium iodide staining-based flow cytometry (reference value: 3.61%); format: functional
HCT-116 [27] = test: Induction of apoptosis in human HCT116 cells assessed as early apoptotic cells at 25 uM after 24 hrs by annexin V-FITC/propidium iodide staining-based flow cytometry (reference value: 3.61%); format: functional
AGS [28] = test: Induction of apoptosis in human AGS cells assessed as necrotic cells at 50 uM after 24 hrs by annexin V-FITC/propidium iodide staining-based flow cytometry (reference value: 0.12%); format: functional
AGS [29] = test: Induction of apoptosis in human AGS cells assessed as necrotic cells at 25 uM after 24 hrs by annexin V-FITC/propidium iodide staining-based flow cytometry (reference value: 0.12%); format: functional
AGS [30] = test: Induction of apoptosis in human AGS cells assessed as late apoptotic cells at 100 uM after 24 hrs by annexin V-FITC/propidium iodide staining-based flow cytometry (reference value: 7.3%); format: functional
AGS [31] = test: Induction of apoptosis in human AGS cells assessed as early apoptotic cells at 50 uM after 24 hrs by annexin V-FITC/propidium iodide staining-based flow cytometry (reference value: 6.6%); format: functional
AGS [32] = test: Induction of apoptosis in human AGS cells assessed as early apoptotic cells at 25 uM after 24 hrs by annexin V-FITC/propidium iodide staining-based flow cytometry (reference value: 6.6%); format: functional
HCT-116 [33] = test: Induction of apoptosis in human HCT116 cells assessed as formation of apoptotic bodies at >100 uM after 24 hrs by acridine orange staining-based microscopy; format: functional, cell-based
HCT-116 [34] = test: Induction of apoptosis in human HCT116 cells assessed as cell shrinkage at >100 uM after 24 hrs by acridine orange staining-based microscopy; format: functional
AGS [35] = test: Induction of apoptosis in human AGS cells assessed as formation of apoptotic bodies at >100 uM after 24 hrs by acridine orange staining-based microscopy; format: functional, cell-based
[36] = Cytotoxicity against human Chang cells after 24 hrs by MTT assay; format: cell-based
HCT-116 [37] = test: Cytotoxicity against human HCT116 cells after 24 hrs by MTT assay; format: functional, cell-based
AGS [38] = test: Cytotoxicity against human AGS cells after 24 hrs by MTT assay; format: functional, cell-based
AGS [39] = test: Induction of apoptosis in human AGS cells assessed as reduction of caspase3 activation at 100 uM after 24 hrs by Western blotting analysis in presence of SP600125; format: functional, cell-based

With `CC(C)=C[C@H]1C[C@](C)(O)[C@@H]2[C@H]3CC[C@@H]4[C@@]5(C)CC[C@H](O[C@@H]6OC[C@H](O)[C@H](O[C@@H]7O[C@H](CO)[C@@H](O)[C@H](O)[C@H]7O[C@@H]7OC[C@@H](O)[C@H](O)[C@H]7O)[C@H]6O[C@@H]6O[C@@H](C)[C@H](O)[C@@H](O)[C@H]6O)C(C)(C)[C@@H]5CC[C@@]4(C)[C@@]34CO[C@@]2(C4)O1` the Activity (AGS [1]) was “Active”, the Activity (AGS [2]) was “Active” and the Activity (HCT-116 [3]) was “Active”. For the same molecule, the Activity (AGS [4]) was “Active”, the Activity (HCT-116 [5]) was “Active” and the Activity (AGS [6]) was “inactive”. The Activity (HCT-116 [7]) was “Active”, the Activity (AGS [8]) was “inactive” and the Activity (AGS [9]) was “inactive”. For the same molecule, the Activity (AGS [10]) was “inactive”, the Activity (AGS [11]) was “Active” and the Activity (AGS [12]) was “inactive”. For the same molecule, the Activity (AGS [13]) was “Active”, the Activity (AGS [14]) was “Active” and the Activity (HCT-116 [15]) was “Active”. The Activity (HCT-116 [16]) was “Dose-dependent effect”, the Activity (AGS [17]) was 8.29% and the Activity (AGS [18]) was 39.55%. The Activity (AGS [19]) was 28.85%, the Activity (AGS [20]) was 15.78% and the Activity (AGS [21]) was 10.81%. For the same molecule, the Activity (HCT-116 [22]) was 0.67%, the Activity (HCT-116 [23]) was 9.74% and the Activity (HCT-116 [24]) was 2.53%. The Activity (HCT-116 [25]) was 43.39%, the Activity (HCT-116 [26]) was 37.59% and the Activity (HCT-116 [27]) was 2.64%. The Activity (AGS [28]) was 0.53%, the Activity (AGS [29]) was 0.55% and the Activity (AGS [30]) was 12.44%. The Activity (AGS [31]) was 8.73%, the Activity (AGS [32]) was 5.57% and the Activity (HCT-116 [33]) was “Active”. For the same molecule, the Activity (HCT-116 [34]) was “Active”, the Activity (AGS [35]) was “Active” and the IC50 [36] was 182 µM. For the same molecule, the Activity (HCT-116 [37]) was “Dose-dependent effect”, the IC50 (HCT-116 [37]; HCT-116, 24 h) was 114 µM and the Activity (AGS [38]) was “Dose-dependent effect”. For the same molecule, the IC50 (AGS [38]) was 107 µM and the Activity (AGS [39]) was “inactive”.

Reference: ChEMBL document CHEMBL3108668, “Antitumor activity of jujuboside B and the underlying mechanism via induction of apoptosis and autophagy” (J Nat Prod, 2014)
